Source: patent US20030022921A1, “Stable pharmaceutical formulation comprising torsemide modification II” (priority 2001, published 2003)

Assay: Polymorphic content by XRPD in bulk torsemide modification II on storage
Assay type: physicochemical
Parameters: key to Polymorphic form detected (I or II): “I” is Torsemide Modification I; “II” is Torsemide Modification II
Conditions: for Polymorphic form detected (I or II) / Polymorph Content / Polymorph Content: amount of Torsemide Modification I: bulk
Text: 1. The present procedure is used for the detection and quantitative determination of the presence of torsemide modification I in tablets wherein the active ingredient is high purity torsemide modification II. The present procedure is also used for the detection and quantitative determination of torsemide modification I in bulk high purity torsemide modification II, which is to be used as the active ingredient in tablets. The present method is based on the unique x-ray powder diffraction pattern of torsemide modification I that is characterized by a strong peak at two-theta 5.7±0.2°, the presence of which indicates the presence of torsemide modification I in a sample of high purity torsemide modification II. 2.1 Instrument: Philips x-ray powder diffractometer. Goniometer model PW 1050/70, Cu-tube, curved graphite monochromator. 2.2 Sample holder: A standard aluminum sample holder with a rectangular cavity 20*15*0.3 mm inside it. Scanning range: 2θ=4° to at least 22° Step: 0.05° Step duration: 0.5 4.1 Gently grind a small amount of sample powder in an agate mortar with the pestle. 4.2 Fill the rectangular cavity on the sample holder with the powder.

[1] = first storage column (condition not given), 1 week
[2] = storage condition not given, 1 month
[3] = storage condition not given, 2 months
[4] = storage condition not given, 2 weeks

Cc1cccc(Nc2ccncc2S(=O)(=O)NC(=O)NC(C)C)c1 [Bulk Lot No. 851700100, 1-Isopropyl-3-[(4-m-toluidino-3-pyridyl)-sulfonyl]urea]
Polymorphic form detected (I or II) (storage 40° C., 75% RH, 1 month): II | Polymorphic form detected (I or II) (storage 40° C., 75% RH, 2 months): II | Polymorphic form detected (I or II) (storage 40° C., 75% RH, 2 weeks): II | Polymorphic form detected (I or II) (storage 40° C., 75% RH, 3 months): II | Polymorphic form detected (I or II) (storage 40° C., 75% RH, 4 months): II | Polymorphic form detected (I or II) (storage 55° C., 1 month): II | Polymorphic form detected (I or II) (storage 55° C., 1 week): II | Polymorphic form detected (I or II) (storage 55° C., 2 months): II | Polymorphic form detected (I or II) (storage 55° C., 2 weeks): II | Polymorphic form detected (I or II) (storage 55° C., 3 months): II | Polymorphic form detected (I or II) (storage 55° C., 4 months): II | Rearrangement into different polymorphic forms of torsemide (storage at 40° C. at 75% relative humidity for 3 months, tablet formulations or bulk active ingredient): does not undergo any significant rearrangement | Polymorphic stability during storage under stress conditions (listed as high purity torsemide modification II): stable during storage under stress conditions for at least 3 months

Cc1cccc(Nc2ccncc2S(=O)(=O)NC(=O)NC(C)C)c1 [Bulk No. 851700200, 1-Isopropyl-3-[(4-m-toluidino-3-pyridyl)-sulfonyl]urea]
Polymorph Content (first storage column (condition not given), 1 month): I + II | Polymorph Content [1]: II >> I | Polymorph Content: amount of Torsemide Modification I [1]: ~0.4% | Polymorph Content (first storage column (condition not given), 2 months): I + II | Polymorph Content (first storage column (condition not given), 2 weeks): I + II | Polymorph Content (first storage column (condition not given), 3 months): I > II | Polymorph Content (first storage column (condition not given), 4 months): I + II | Polymorph Content [2]: II >> I | Polymorph Content: amount of Torsemide Modification I [2]: ~1% | Polymorph Content [3]: II >> I | Polymorph Content: amount of Torsemide Modification I [3]: ~6% | Polymorph Content [4]: II >> I | Polymorph Content: amount of Torsemide Modification I [4]: ~0.5% | Polymorph Content (storage condition not given, 3 months): I + II | Polymorph Content (storage condition not given, 4 months): I + II | Polymorph Content (t = 0): II >>> I | Polymorph Content: amount of Torsemide Modification I (t = 0): < 0.3% | Polymorphic stability during storage under stress conditions (listed as torsemide modification II that contains trace amounts of torsemide modification): not stable during storage under stress condition for at least 3 months
